Laboratory results reported in the supplement of paper PMC10307832.

Experiments:
Experiment in all cases: relative viability (nuclei count vs DMSO), 5 days (fraction); higher = more cells survive
HARA = test system: HARA
Procedure, shortened: (§1)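 Each reported value is a median over duplicate plates. It expresses relative viability: treated-well nuclei count divided by vehicle-well nuclei count. Lung cancer cell lines in 1536-well plates were dosed by pin tool a day after seeding, alone with one drug or with a fixed anchor-drug dose plus five library-drug doses (not always all listed) in √10 steps, and nuclei were counted after 5 days.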

UMC-11 = test system: UMC-11
Procedure, shortened: as §1

NCI-H838 = test system: NCI-H838
Procedure, shortened: as §1

COR-L23 = test system: COR-L23
Procedure, shortened: as §1

NCI-H647 = test system: NCI-H647
Procedure, shortened: as §1

NCI-H1993 = test system: NCI-H1993
Procedure, shortened: as §1

COR-L 105 = test system: COR-L 105
Procedure, shortened: as §1

NCI-H2009 = test system: NCI-H2009
Procedure, shortened: as §1

NCI-H2347 = test system: NCI-H2347
Procedure, shortened: as §1

EKVX = test system: EKVX
Procedure, shortened: as §1

NCI-H2228 = test system: NCI-H2228
Procedure, shortened: as §1

NCI-H322M = test system: NCI-H322M
Procedure, shortened: as §1

PC-14 = test system: PC-14
Procedure, shortened: as §1

HOP-62 = test system: HOP-62
Procedure, shortened: as §1

NCI-H1355 = test system: NCI-H1355
Procedure, shortened: as §1

NCI-H1755 = test system: NCI-H1755
Procedure, shortened: as §1

NCI-H1734 = test system: NCI-H1734
Procedure, shortened: as §1

`C[C@@H]1CN(CC(=O)Nc2ccc3c(c2)Cc2cccc(-c4cc(=O)cc(N5CCOCC5)o4)c2S3)C[C@H](C)O1` + CC(C)C[C@H](NC(=O)[C@H](Cc1ccccc1)NC(=O)c1cnccn1)B(O)O [Bortezomib] (partner 0.002 µM) gave a relative viability (HARA; first compound 0.04 µM) of 1.14, a relative viability (HARA; first compound 0.1265 µM) of 1.15 and a relative viability (HARA; first compound 0.4 µM) of 1.09. It also gave a relative viability (HARA; first compound 4 µM) of 1.05, a relative viability (UMC-11; first compound 0.04 µM) of 0.778 and a relative viability (UMC-11; first compound 0.1265 µM) of 0.693. For the same molecule, the relative viability (UMC-11; first compound 0.4 µM) was 0.919, the relative viability (UMC-11; first compound 4 µM) was 0.543 and the relative viability (NCI-H838; first compound 0.04 µM) was 0.715. For the same molecule, the relative viability (NCI-H838; first compound 0.1265 µM) was 0.689, the relative viability (NCI-H838; first compound 0.4 µM) was 0.865 and the relative viability (NCI-H838; first compound 4 µM) was 0.643. For the same molecule, the relative viability (COR-L23; first compound 0.04 µM) was 0.975, the relative viability (COR-L23; first compound 0.1265 µM) was 0.996 and the relative viability (COR-L23; first compound 0.4 µM) was 0.984. It also gave a relative viability (COR-L23; first compound 4 µM) of 0.795, a relative viability (NCI-H647; first compound 0.04 µM) of 1 and a relative viability (NCI-H647; first compound 0.1265 µM) of 1.02. The relative viability (NCI-H647; first compound 0.4 µM) was 0.985, the relative viability (NCI-H647; first compound 4 µM) was 0.484 and the relative viability (NCI-H1993; first compound 0.04 µM) was 1.12. It also gave a relative viability (NCI-H1993; first compound 0.1265 µM) of 1.08, a relative viability (NCI-H1993; first compound 0.4 µM) of 0.763 and a relative viability (NCI-H1993; first compound 4 µM) of 1.01. It also gave a relative viability (COR-L 105; first compound 0.04 µM) of 0.741, a relative viability (COR-L 105; first compound 0.1265 µM) of 0.896 and a relative viability (COR-L 105; first compound 0.4 µM) of 1.1. The relative viability (COR-L 105; first compound 4 µM) was 0.484, the relative viability (NCI-H2009; first compound 0.04 µM) was 0.982 and the relative viability (NCI-H2009; first compound 0.1265 µM) was 1.01. For the same molecule, the relative viability (NCI-H2009; first compound 0.4 µM) was 0.933, the relative viability (NCI-H2009; first compound 4 µM) was 0.714 and the relative viability (NCI-H2347; first compound 0.04 µM) was 0.923. The relative viability (NCI-H2347; first compound 0.1265 µM) was 1.03, the relative viability (NCI-H2347; first compound 0.4 µM) was 1.2 and the relative viability (NCI-H2347; first compound 4 µM) was 0.958. For the same molecule, the relative viability (EKVX; first compound 0.04 µM) was 1.19, the relative viability (EKVX; first compound 0.1265 µM) was 1.02 and the relative viability (EKVX; first compound 0.4 µM) was 0.945. For the same molecule, the relative viability (EKVX; first compound 4 µM) was 0.705, the relative viability (NCI-H2228; first compound 0.04 µM) was 0.932 and the relative viability (NCI-H2228; first compound 0.1265 µM) was 0.877. It also gave a relative viability (NCI-H2228; first compound 0.4 µM) of 0.821, a relative viability (NCI-H2228; first compound 4 µM) of 0.523 and a relative viability (NCI-H322M; first compound 0.04 µM) of 1.09. The relative viability (NCI-H322M; first compound 0.1265 µM) was 1.14, the relative viability (NCI-H322M; first compound 0.4 µM) was 1.32 and the relative viability (NCI-H322M; first compound 4 µM) was 1.12. The relative viability (PC-14; first compound 0.04 µM) was 0.993, the relative viability (PC-14; first compound 0.1265 µM) was 0.859 and the relative viability (PC-14; first compound 0.4 µM) was 0.798. It also gave a relative viability (PC-14; first compound 4 µM) of 0.664, a relative viability (HOP-62; first compound 0.04 µM) of 0.677 and a relative viability (HOP-62; first compound 0.1265 µM) of 0.548. For the same molecule, the relative viability (HOP-62; first compound 0.4 µM) was 0.755, the relative viability (HOP-62; first compound 4 µM) was 1.02 and the relative viability (NCI-H1355; first compound 0.04 µM) was 1.2. It also gave a relative viability (NCI-H1355; first compound 0.1265 µM) of 1.23, a relative viability (NCI-H1355; first compound 0.4 µM) of 1.19 and a relative viability (NCI-H1355; first compound 4 µM) of 1.18. For the same molecule, the relative viability (NCI-H1755; first compound 0.04 µM) was 1.05, the relative viability (NCI-H1755; first compound 0.1265 µM) was 1.01 and the relative viability (NCI-H1755; first compound 0.4 µM) was 0.948. For the same molecule, the relative viability (NCI-H1755; first compound 4 µM) was 0.942, the relative viability (NCI-H1734; first compound 0.04 µM) was 1.07 and the relative viability (NCI-H1734; first compound 0.1265 µM) was 1.04. The relative viability (NCI-H1734; first compound 0.4 µM) was 0.927 and the relative viability (NCI-H1734; first compound 4 µM) was 1.1.
